≈ marks a conversion by molar mass, not a printed value.
Assays:
[1] = target: thioredoxin (Homo sapiens, UniProt P10599); conditions: irreversible inhibitor of thioredoxin; cited from earlier work
[2] = test system: HCT 116 colon carcinoma; experiment: Growth inhibitory assay (MTT, 72 hr); format: cell-based; conditions: Homo sapiens, 72 hr exposure
Experimental: (§1) Compounds were prepared as 10 mM top stocks, dissolved in DMSO, and stored at 4° C., protected from light, for a maximum period of 4 weeks. Human derived cell lines (HCT 116, HT29 colon carcinoma; MCF-7 (ER+), MDA 468 (ER−) breast carcinoma; A549 lung adenocarcinoma) were routinely cultivated at 37° C. in an atmosphere of 5% CO2 in RPMI 1640 medium supplemented with 2 mM L-glutamine and 10% fetal calf serum and subcultured twice weekly to maintain continuous logarithmic growth. Cells were seeded into 96-well microtiter plates at a density of 5×10^3 per well and allowed 24 hr to adhere before drugs were introduced (final concentration 0.1 nM–100 μM, n=8). Serial drug dilutions were prepared in medium immediately prior to each assay. At the time of drug addition and following 72 hr exposure, MTT was added to each well (final concentration 400 µg/mL). Incubation at 37° C. for 4 hr allowed reduction of MTT by mitochondrial dehydrogenase to an insoluble formazan product. Well contents were aspirated and formazan solubilized by addition of DMSO:glycine buffer (pH 10.5) (4:1). Absorbance was measured using an Anthos Labtec systems plate reader at 550 nm, and used as a measure of cell viability; thus cell growth or drug toxicity was determined.

[3] = test system: A549 lung adenocarcinoma; experiment: Growth inhibitory assay (MTT, 72 hr); format: cell-based; conditions: Homo sapiens, 72 hr exposure
Experimental: as §1

[4] = test system: HT29 colon carcinoma; experiment: Growth inhibitory assay (MTT, 72 hr); format: cell-based; conditions: Homo sapiens, HT-29, 72 hr exposure
Experimental: as §1

[5] = test system: Mycobacterium tuberculosis H37Rv (ATCC 27294); experiment: Microplate Alamar Blue Assay (MABA), TAACF primary screening; format: cell-based; conditions: lowest concentration effecting a reduction in fluorescence of 90% relative to controls
Text: Compounds were submitted to the Tuberculosis Antimicrobial Acquisition and Coordinating Facility (TAACF) for testing as antimycobacterial drugs.
Compounds were subjected to in vitro evaluation for antimycobacterial activity.
See, for example, Collins et al., 1997.

[6] = test system: renal sub-panel; experiment: cells; format: cell-based; conditions: Homo sapiens, 60 cell, read-out: mean LC50 in renal sub-panel
Experimental: (§2) Compounds were tested for in vitro activity (48 h drug exposure) across 60 human cancer cell lines through the National Cancer Institute (NCI) Developmental Therapies Screening Program (Boyd et al., 1995).

[7] = test system: colon sub-panel; experiment: cells; format: cell-based; conditions: Homo sapiens, SW-620, read-out: mean LC50 in colon sub-panel
Experimental: as §2

[8] = test system: 60 human cancer cell lines; experiment: cells; format: cell-based; conditions: Homo sapiens; for CC50: 60 cell, 48 h, read-out: mean LC50; for GI50: mean over NCI 60 cell panel, 48 h drug exposure
Experimental: as §2

[9] = test system: MDA 468 (ER−) breast carcinoma; experiment: Growth inhibitory assay (MTT, 72 hr); format: cell-based; conditions: Homo sapiens, 72 hr exposure
Experimental: as §1

[10] = test system: MCF-7 (ER+) breast carcinoma; experiment: Growth inhibitory assay (MTT, 72 hr); format: cell-based; conditions: Homo sapiens, MCF7, 72 hr exposure
Experimental: as §1

[11] = bovine, serum; cited from earlier work

Sequence of thioredoxin (P10599 whole entry): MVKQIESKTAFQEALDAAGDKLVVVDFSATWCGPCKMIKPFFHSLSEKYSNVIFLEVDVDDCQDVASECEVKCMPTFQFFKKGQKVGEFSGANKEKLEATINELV

Row | Compound | Ki [1] [µM] | IC50 [2] [µM] | IC50 [3] [µM] | IC50 [4] [µM] | MIC [5] [mg/L] | mean LC50 [6] [µM] | LC50 [7] [µM] | CC50 [8] [µM] | GI50 [8] [µM] | melting point [°C] | IC50 [9] [µM] | IC50 [10] [µM] | half-life [11] [min]
1 | CN(C)CC1CCC(CN(C)C)C1=O (centres unmarked) [NSC-131233, 2,5-bis[(dimethylamino)methyl]cyclopentanone] | 1 | – | – | – | – | – | – | – | – | – | – | – | –
2 | O=C1C=CC(O)(c2cc3ccccc3o2)C=C1 [Q01, 4-(Benzofuran-2-yl)-4-hydroxy-2,5-cyclohexadien-1-one] | – | 0.159 | 2.3 | 0.419 | 1.56 (≈ 6.9 µM) | 2.4 | 3.66 | 7.24 | 0.52 | – | – | – | –
3 | O=C1C=CC(O)(c2cc3ccccc3[nH]2)C=C1 [Q03, 4-(Indol-2-yl)-4-hydroxy-2,5-cyclohexadien-1-one] | – | 2.84 | 6.13 | 1.76 | 3.13 (≈ 13.9 µM) | – | – | – | 1.41 | 133 | – | – | –
4 | O=C1C=CC(O)(c2nc3ccccc3o2)C=C1 [Q04, 4-(Benzoxazol-2-yl)-4-hydroxy-2,5-cyclohexadien-1-one] | – | 0.18 | 2.33 | 0.29 | 1.56 (≈ 6.87 µM) | 1.64 | 1.13 | 7.08 | 0.46 | – | 0.35 | 0.39 | –
5 | O=CN/C=C/c1cc(O)ccc1O [erbstatin] | – | – | – | – | – | – | – | – | – | – | – | – | < 30

— patent publication US7144893B2, “4-aryl quinols and analogs thereof as therapeutic agents” (Cancer Research Technology Limited, priority 2001, dated 2006)
